Measurements reported in US9611263B2, “Compounds that modulate intracellular calcium” (CALCIMEDICA, INC., priority 2013, dated 2017).

Columns and labels:
RBL-2H3 cells = test: Fluorescence-based assay of store-operated calcium entry in RBL-2H3 cells; type: cell-based, rat; conditions: Rattus norvegicus, RBL-2H3; thapsigargin; 50% inhibition of Upslope; read-out: RBL-2H3 (IC50, μmol)
Method: B. Fluorescence-Based Assay of Store-Operated Calcium Entry in RBL-2H3 Cells.
RBL-2H3 cells are obtained from ATCC and maintained in complete medium with 10% FBS at 37° C./6% CO2.
The day prior to performing the assay, RBL-2H3 cells are plated in 50 μL of complete medium in a 384 well plate. Cells are grown at 37° C./6% CO2 overnight and grow to 50-60% confluence by the next day. On the assay day, 1.5 μM Fluo-4-AM dye (Invitrogen) in complete medium is added and incubated for 1 hour at RT. Cells are washed twice in Ca^2+-free HBSS buffer and 35 μL Ca^2+-free HBSS buffer is added to each well. 10 μL of a test compound prepared in a Ca^2+-free HBSS solution at 4.5× of the desired concentration is added to a well and incubated for 5 minutes at RT. 10 μL of thapsigargin prepared in a Ca^2+-free HBSS solution at 5.5× of the desired concentration (5.5 uM) is added to each well and incubated for an additional 25 minutes. The initial baseline fluorescence signal is measured with a FLIPR^384 (Molecular Devices) plate reader. 5 μL of 12× calcium in HBSS (12 mM) is added and changes in cellular fluorescence are measured with the FLIPR^384 plate reader. In each well, the change in the fluorescent signal as a function of time due to calcium entry into the cell is determined by calculating the difference between the fluorescent signal measured 7 seconds after calcium addition and the initial baseline fluorescence signal at time zero (t=0). This parameter is designated Upslope. The IC50 value is calculated as the concentration at which 50% of the Upslope is inhibited.

Orai1/STIM1 = molecular target: T1, Orai1/STIM1 (Homo sapiens, UniProt Q96D31); test: Fluorescence-based assay of store-operated calcium entry in Orai1/STIM1 stable cells; type: cell-based; conditions: HEK-293 cells stably expressing human STIM1 and Orai1; 50% inhibition of Peak-Basal fluorescence signal; read-out: Orai1/STIM1 (IC50, μmol)
T1 construct: expressed in transfected cells
T1 sequence (Q96D31 whole entry): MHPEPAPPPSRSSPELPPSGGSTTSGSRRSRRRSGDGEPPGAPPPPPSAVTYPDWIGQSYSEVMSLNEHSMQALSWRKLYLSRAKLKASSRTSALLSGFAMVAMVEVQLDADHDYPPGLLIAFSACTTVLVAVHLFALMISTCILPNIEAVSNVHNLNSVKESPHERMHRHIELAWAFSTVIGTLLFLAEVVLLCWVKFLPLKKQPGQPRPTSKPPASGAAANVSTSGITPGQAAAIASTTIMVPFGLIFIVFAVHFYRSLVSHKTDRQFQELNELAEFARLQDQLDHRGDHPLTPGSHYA
Method: A. Fluorescence-Based Assay of Store-Operated Calcium Entry in Orai1/STIM1 Stable Cells.
Cells stably expressing recombinant human STIM1 and Orai1 are generated by transfecting a human Orai1 expression plasmid (pcDNA3.1-Orai1-cmyc) into HEK-293 cells stably overexpressing human STIM1 (Roos et al. 2005 JCB 169(3): 435-445). Colonies of cells stably expressing both STIM1 and Orai1 proteins are selected and then subcloned by limiting dilution. Cells were cultured at 37° C./6% CO2 in complete medium with 10% FBS and appropriate selection markers.
The day prior to performing the assay Orai1/STIM1 stable cells are plated in 50 μL of complete medium at 90-95% confluence in a 384 well plate. Cells are grown at 37° C./6% CO2 overnight. On the day of the assay, 1.5 μM fluo-4-AM (Invitrogen) in complete medium is added to the cells, which are then incubated for 1 hour at RT. Cells are washed once in Ca^2+-free HBSS (Hank's buffered saline solution) and 35 μl of Ca^2+-free HBSS is added to each well. Test compounds are added to wells in a 10 μL Ca^2+-free HBSS solution, prepared at 4.5× the desired final concentration, and incubated for 30 minutes at RT. The initial baseline fluorescence signal is then measured with a FLIPR^384 (Molecular Devices) plate reader. Calcium entry is initiated by adding 5 μl of 10× CaCl2 (10 mM) in HBSS, and changes in cellular fluorescence are measured with the FLIPR^384 plate reader. In each well, the magnitude of the fluorescence signal as a result of calcium entry into the cell is determined by calculating the difference between the peak fluorescence signal measured after calcium addition and the initial baseline fluorescence signal (designated Peak-Basal). IC50 values are typically calculated as the concentration that inhibited 50% of the Peak-Basal signal.

Row | SMILES | IC50 (RBL-2H3 cells) [µM] | IC50 (Orai1/STIM1) [µM]
1 | Cc1nn(-c2nccs2)cc1-c1ccc(NC(=O)c2c(F)cccc2F)cc1 [Example 1, 2,6-difluoro-N-(4-(3-methyl-1-(thiazol-2-yl)-1H-pyrazol-4-yl)phenyl)benzamide] | < 0.6 | < 0.6
2 | Cc1nn(-c2nccs2)cc1-c1ccc(NC(=O)c2ccccc2F)cc1 [Example 2, 2-fluoro-N-(4-(3-methyl-1-(thiazol-2-yl)-1H-pyrazol-4-yl)phenyl)benzamide] | < 0.6 | < 0.6
3 | Cc1cccc(F)c1C(=O)Nc1ccc(-c2cn(-c3nccs3)nc2C)cc1 [Example 3, 2-fluoro-6-methyl-N-(4-(3-methyl-1-(thiazol-2-yl)-1H-pyrazol-4-yl)phenyl)benzamide] | < 0.6 | < 0.6
4 | Cc1nn(-c2nccs2)cc1-c1ccc(NC(=O)c2c(F)ccc(F)c2F)cc1 [Example 4, 2,3,6-trifluoro-N-(4-(3-methyl-1-(thiazol-2-yl)-1H-pyrazol-4-yl)phenyl)benzamide] | < 0.6 | < 0.6
5 | Cc1nn(-c2nccs2)cc1-c1ccc(NC(=O)c2ccccc2OC(F)F)cc1 [Example 5, 2-(difluoromethoxy)-N-(4-(3-methyl-1-(thiazol-2-yl)-1H-pyrazol-4-yl)phenyl)benzamide] | < 0.6 | < 0.6
6 | CCc1nn(-c2nccs2)cc1-c1ccc(NC(=O)c2c(F)cccc2F)cc1 [Example 6, N-(4-(3-ethyl-1-(thiazol-2-yl)-1H-pyrazol-4-yl)phenyl)-2,6-difluorobenzamide] | < 0.6 | < 0.6
7 | CCc1nn(-c2nccs2)cc1-c1ccc(NC(=O)c2ccccc2F)cc1 [Example 7, N-(4-(3-ethyl-1-(thiazol-2-yl)-1H-pyrazol-4-yl)phenyl)-2-fluorobenzamide] | < 0.6 | < 0.6
8 | CCc1nn(-c2nccs2)cc1-c1ccc(NC(=O)c2c(C)cccc2F)cc1 [Example 8, N-(4-(3-ethyl-1-(thiazol-2-yl)-1H-pyrazol-4-yl)phenyl)-2-fluoro-6-methylbenzamide] | < 0.6 | 0.6 to 1.2
9 | Cc1nn(-c2nccs2)cc1-c1ccc(NC(=O)c2c(F)cccc2F)cc1F [Example 10, 2,6-difluoro-N-(3-fluoro-4-(3-methyl-1-(thiazol-2-yl)-1H-pyrazol-4-yl)phenyl)benzamide] | < 0.6 | < 0.6
10 | Cc1nn(-c2nccs2)cc1-c1ccc(NC(=O)c2ccccc2F)cc1F [Example 11, 2-fluoro-N-(3-fluoro-4-(3-methyl-1-(thiazol-2-yl)-1H-pyrazol-4-yl)phenyl)benzamide] | < 0.6 | < 0.6
11 | Cc1cccc(F)c1C(=O)Nc1ccc(-c2cn(-c3nccs3)nc2C)c(F)c1 [Example 12, 2-fluoro-N-(3-fluoro-4-(3-methyl-1-(thiazol-2-yl)-1H-pyrazol-4-yl)phenyl)-6-methylbenzamide] | < 0.6 | 0.6 to 1.2
12 | Cc1nn(-c2nccs2)cc1-c1ccc(NC(=O)c2c(F)ccc(F)c2F)cc1F [Example 13, 2,3,6-trifluoro-N-(3-fluoro-4-(3-methyl-1-(thiazol-2-yl)-1H-pyrazol-4-yl)phenyl)benzamide] | < 0.6 | < 0.6
13 | Cc1nn(-c2nccs2)cc1-c1ccc(NC(=O)c2c(F)cc(F)cc2F)cc1F [Example 14, 2,4,6-trifluoro-N-(3-fluoro-4-(3-methyl-1-(thiazol-2-yl)-1H-pyrazol-4-yl)phenyl)benzamide] | < 0.6 | < 0.6
14 | Cc1nn(-c2nccs2)cc1-c1ccc(NC(=O)c2ccc(F)c(F)c2F)cc1F [Example 15, 2,3,4-trifluoro-N-(3-fluoro-4-(3-methyl-1-(thiazol-2-yl)-1H-pyrazol-4-yl)phenyl)benzamide] | < 0.6 | < 0.6
15 | Cc1nn(-c2nccs2)cc1-c1ccc(NC(=O)c2cc(F)nc(F)c2)cc1F [Example 16, 2,6-difluoro-N-(3-fluoro-4-(3-methyl-1-(thiazol-2-yl)-1H-pyrazol-4-yl)phenyl)isonicotinamide] | < 0.6 | < 0.6
16 | Cc1nn(-c2nccs2)cc1-c1ccc(NC(=O)c2ccccc2OC(F)F)cc1F [Example 17, 2-(difluoromethoxy)-N-(3-fluoro-4-(3-methyl-1-(thiazol-2-yl)-1H-pyrazol-4-yl)phenyl)benzamide] | < 0.6 | 0.6 to 1.2
17 | Cc1nn(-c2nccs2)cc1-c1ccc(NC(=O)c2c(F)cccc2F)nc1 [Example 18, 2,6-difluoro-N-(5-(3-methyl-1-(thiazol-2-yl)-1H-pyrazol-4-yl)pyridin-2-yl)benzamide] | < 0.6 | < 0.6

Other lines, results leading:

Row | IC50 (RBL-2H3 cells) [µM] | IC50 (Orai1/STIM1) [µM] | SMILES
18 | < 0.6 | < 0.6 | Cc1cccc(F)c1C(=O)Nc1ccc(-c2cn(-c3nccs3)nc2C)cn1 [Example 19, 2-fluoro-6-methyl-N-(5-(3-methyl-1-(thiazol-2-yl)-1H-pyrazol-4-yl)pyridin-2-yl)benzamide]
19 | < 0.6 | < 0.6 | Cc1nn(-c2nccs2)cc1-c1ccc(NC(=O)c2c(F)ccc(F)c2F)nc1 [Example 20, 2,3,6-trifluoro-N-(5-(3-methyl-1-(thiazol-2-yl)-1H-pyrazol-4-yl)pyridin-2-yl)benzamide]
20 | < 0.6 | < 0.6 | Cc1nn(-c2nccs2)cc1-c1ccc(NC(=O)c2c(F)cc(F)cc2F)nc1 [Example 21, 2,4,6-trifluoro-N-(5-(3-methyl-1-(thiazol-2-yl)-1H-pyrazol-4-yl)pyridin-2-yl)benzamide]
21 |  | 0.6 to 1.2 | Cc1nn(-c2nccs2)cc1-c1ccc(NC(=O)c2ccc(F)c(F)c2F)nc1 [Example 22, 2,3,4-trifluoro-N-(5-(3-methyl-1-(thiazol-2-yl)-1H-pyrazol-4-yl)pyridin-2-yl)benzamide]
22 | < 0.6 | < 0.6 | Cc1nn(-c2nccs2)cc1-c1ccc(NC(=O)c2cc(F)nc(F)c2)nc1 [Example 23, 2,6-difluoro-N-(5-(3-methyl-1-(thiazol-2-yl)-1H-pyrazol-4-yl)pyridin-2-yl)isonicotinamide]
23 | < 0.6 | < 0.6 | Cc1nn(-c2nccs2)cc1-c1cnc(NC(=O)c2c(F)cccc2F)cn1 [Example 24, 2,6-difluoro-N-(5-(3-methyl-1-(thiazol-2-yl)-1H-pyrazol-4-yl)pyrazin-2-yl)benzamide]
24 | < 0.6 | < 0.6 | Cc1nn(-c2nccs2)cc1-c1cnc(NC(=O)c2ccccc2F)cn1 [Example 25, 2-fluoro-N-(5-(3-methyl-1-(thiazol-2-yl)-1H-pyrazol-4-yl)pyrazin-2-yl)benzamide]
25 | < 0.6 | < 0.6 | Cc1cccc(F)c1C(=O)Nc1cnc(-c2cn(-c3nccs3)nc2C)cn1 [Example 26, 2-fluoro-6-methyl-N-(5-(3-methyl-1-(thiazol-2-yl)-1H-pyrazol-4-yl)pyrazin-2-yl)benzamide]
26 | < 0.6 | < 0.6 | Cc1nn(-c2nccs2)cc1-c1cnc(NC(=O)c2c(F)ccc(F)c2F)cn1 [Example 27, 2,3,6-trifluoro-N-(5-(3-methyl-1-(thiazol-2-yl)-1H-pyrazol-4-yl)pyrazin-2-yl)benzamide]
27 | < 0.6 | < 0.6 | Cc1nn(-c2nccs2)cc1-c1cnc(NC(=O)c2c(F)cc(F)cc2F)cn1 [Example 28, 2,4,6-trifluoro-N-(5-(3-methyl-1-(thiazol-2-yl)-1H-pyrazol-4-yl)pyrazin-2-yl)benzamide]
28 |  | > 1.2 | Cc1nn(-c2nccs2)cc1-c1cnc(NC(=O)c2ccc(F)c(F)c2F)cn1 [Example 29, 2,3,4-trifluoro-N-(5-(3-methyl-1-(thiazol-2-yl)-1H-pyrazol-4-yl)pyrazin-2-yl)benzamide]
